Results reported in the Deep4Chem optical property database.

Assay: solvent given as SMILES
Conditions: in C1CCCCC1

Compound | emission maximum [nm]
COC(=O)[C@H](Cc1ccc2oc3c(c2c1)=CC1=C(c2ccc(OC)cc2)c2cc4c5cc(C[C@H](NC(=O)OC(C)(C)C)C(=O)OC)ccc5oc4n2[B-](F)(F)[N+]=31)NC(=O)OC(C)(C)C | 596.5
CC1=C(C(C)(C)C)C(C)=[N+]2C1=C(C)c1c(C)c(C(C)(C)C)c(C)n1[B-]2(F)F | 571.2
CCC1=C(C)C2=C(C)c3c(I)c(I)cn3[B-](F)(F)[N+]2=C1C | 538.5
CCCCC#Cc1cccc2cc(CCCC)c3cc(-c4cc[b-]5c(c4)c(CCCC)cc4cccc(C#CCCCC)[n+]54)cc[b-]3[n+]12 | 598
CC(C)[Si]1(C(C)C)c2cc(C=C(C#N)C#N)ccc2-c2ccc(N(C)C)cc21 | 509

Same assay, conditions: in C1CCOC1

Compound | emission maximum [nm]
CN(C)c1ccc(C2=Nc3sc4ccccc4[n+]3[B-](F)(F)O2)cc1 | 469
Cc1cc(C)c([B-]2(c3c(C)cc(C)cc3C)[O+]=P(c3ccccc3)(c3ccccc3)c3cc(-c4ccc(C(C)(C)C)cc4)sc3-c3sc(-c4ccc(C(C)(C)C)cc4)cc32)c(C)c1 | 498
CCOC(=O)C1=CN(c2ccccc2)C=CC1c1ccccc1 (stereo not given) | 419
O=Cc1cc(O)c(C=O)cc1O | 468
F[B-]1(F)OC(c2ccccc2)=Nc2sc(-c3ccccc3)n[n+]21 | 402
CC1=C(C(C)(C)C)C(C)=[N+]2C1=C(C)c1c(C)c(C(C)(C)C)c(C)n1[B-]2(F)F | 566.6
CC(=O)Nc1ccc(S(=O)(=O)O)c(/N=N/c2c(O)c3ccccc3n(C)c2=O)c1 | 523
CN(C)c1ccc(/C=C/c2cc(/C=C/c3ccc(N(C)C)cc3)nc(/C=C/c3ccccc3)n2)cc1 | 526
CC1=C(C#Cc2ccc(N(c3ccccc3)c3ccccc3)cc2)C(C)=[N+]2C1=C(c1ccccc1)c1c(C)c(C#Cc3ccc(N(c4ccccc4)c4ccccc4)cc3)c(C)n1[B-]2(F)F | 659
CC(C)(C)c1ccc(-c2c(-c3ccc(-n4c5ccccc5c5ccccc54)cc3)cc(-c3ccc(-n4c5ccccc5c5ccccc54)cc3)c(-c3ccc(C(C)(C)C)cc3)c2-c2ccc(C(C)(C)C)cc2)cc1 | 367

Same assay, conditions: in C1COCCO1

Compound | emission maximum [nm]
O=Cc1cc(O)c(C=O)cc1O | 468
CC1=C(C(C)(C)C)C(C)=[N+]2C1=C(C)c1c(C)c(C(C)(C)C)c(C)n1[B-]2(F)F | 565.4

Same assay, conditions: in CC1CCCCC1

emission maximum [nm] | Compound
488 | C(=C\c1c2ccccc2cc2ccccc12)/c1cnc2ccccc2c1

Same assay, conditions: in CC1COC(=O)O1

Compound | emission maximum [nm]
CN(C)c1ccc(/C=C/c2cc[n+](CCCCCCCCCCCC[n+]3ccc(/C=C/c4ccc(N(C)C)cc4)cc3)cc2)cc1 | 602

Same assay, conditions: in CC#N

Compound | emission maximum [nm]
CC1(C)CC(=O)c2cc(F)cc(F)c2N1 | 455
CN(C)c1ccc(C2=Nc3sc4ccccc4[n+]3[B-](F)(F)O2)cc1 | 486
CN(C)c1ccc(/C=C/c2cc[n+](CCCCCCCCCCCC[n+]3ccc(/C=C/c4ccc(N(C)C)cc4)cc3)cc2)cc1 | 602
CCCSc1ccc2n1[B-](F)(F)[N+]1=CC=CC1=C2c1ccccc1 | 585
O=Cc1cc(O)c(C=O)cc1O | 474
F[B-]1(F)OC(c2ccccc2)=Nc2sc(-c3ccccc3)n[n+]21 | 415
C(=C\c1c2ccccc2cc2ccccc12)/c1cnc2ccccc2c1 | 494
CC1=C(C(C)(C)C)C(C)=[N+]2C1=C(C)c1c(C)c(C(C)(C)C)c(C)n1[B-]2(F)F | 560.6
c1ccc(-c2nc(-c3cccs3)[nH]c2-c2ccccc2)cc1 | 391
CN(C)c1ccc(/C=C/c2cc(/C=C/c3ccc(N(C)C)cc3)nc(/C=C/c3ccccc3)n2)cc1 | 587
Cn1c(=O)cc(C(=O)c2ccccc2)c2sc(-c3ccc(N(c4ccccc4)c4ccccc4)cc3)cc21 | 504
CC(C)[Si]1(C(C)C)c2cc(C=C(C#N)C#N)ccc2-c2ccc(N(C)C)cc21 | 694

Same assay, conditions: in CC(=O)N(C)C

emission maximum [nm] | Compound
713 | C1=C/C2=C(\c3ccccc3)c3c[nH]c(c3)/C(c3ccccc3)=C3/C=CC(=N3)/C(c3ccccc3)=c3/cc/c([nH]3)=C(\c3ccccc3)C1=N2

Same assay, conditions: in CC(C)=O

Compound | emission maximum [nm]
CN(C)c1ccc(C2=Nc3sc4ccccc4[n+]3[B-](F)(F)O2)cc1 | 482
CN(C)c1ccc(/C=C/c2cc[n+](CCCCCCCCCCCC[n+]3ccc(/C=C/c4ccc(N(C)C)cc4)cc3)cc2)cc1 | 602
O=Cc1cc(O)c(C=O)cc1O | 470
CC1=C(C(C)(C)C)C(C)=[N+]2C1=C(C)c1c(C)c(C(C)(C)C)c(C)n1[B-]2(F)F | 563.6
CC(=O)Nc1ccc(S(=O)(=O)O)c(/N=N/c2c(O)c3ccccc3n(C)c2=O)c1 | 516
CCC1=C(C)C2=C(C)c3c(I)c(I)cn3[B-](F)(F)[N+]2=C1C | 533
CN(C)c1ccc(/C=C/c2cc(/C=C/c3ccc(N(C)C)cc3)nc(/C=C/c3ccccc3)n2)cc1 | 563

Same assay, conditions: in CC(C)CC(C)(C)C

Compound | emission maximum [nm]
CC1=C(C(C)(C)C)C(C)=[N+]2C1=C(C)c1c(C)c(C(C)(C)C)c(C)n1[B-]2(F)F | 569

Same assay, conditions: in CC(C)O

Compound | emission maximum [nm]
CN(C)c1ccc(/C=C/c2cc[n+](CCCCCCCCCCCC[n+]3ccc(/C=C/c4ccc(N(C)C)cc4)cc3)cc2)cc1 | 590

Same assay, conditions: in CCC(C)C

Compound | emission maximum [nm]
CC1=C(C(C)(C)C)C(C)=[N+]2C1=C(C)c1c(C)c(C(C)(C)C)c(C)n1[B-]2(F)F | 569

Same assay, conditions: in CCCC(C)=O

Compound | emission maximum [nm]
CC1=C(C(C)(C)C)C(C)=[N+]2C1=C(C)c1c(C)c(C(C)(C)C)c(C)n1[B-]2(F)F | 562.6

Same assay, conditions: in CCCCCC

Compound | emission maximum [nm]
CCCSc1ccc2n1[B-](F)(F)[N+]1=CC=CC1=C2c1ccccc1 | 588
CC1=C(C(C)(C)C)C(C)=[N+]2C1=C(C)c1c(C)c(C(C)(C)C)c(C)n1[B-]2(F)F | 567.8
CC(C)(C)c1ccc2c(c1)c1cc3c4cc(C(C)(C)C)ccc4c4c5c6ccc(C(C)(C)C)cc6c6cc7c8cc(C(C)(C)C)ccc8c8c2c1c(c34)c(c78)c65 | 679.35

Same assay, conditions: in CCCCCCC

Compound | emission maximum [nm]
CN(C)c1ccc(/C=C/c2cc(/C=C/c3ccc(N(C)C)cc3)nc(/C=C/c3ccccc3)n2)cc1 | 453
c1ccc2cc3c(cc2c1)-c1cccc2cc4ccccc4c-3c12 | 471

Same assay, conditions: in CCCCCCCCO

Compound | emission maximum [nm]
CC1=C(C(C)(C)C)C(C)=[N+]2C1=C(C)c1c(C)c(C(C)(C)C)c(C)n1[B-]2(F)F | 565

Same assay, conditions: in CCCCCCO

Compound | emission maximum [nm]
CC1=C(C(C)(C)C)C(C)=[N+]2C1=C(C)c1c(C)c(C(C)(C)C)c(C)n1[B-]2(F)F | 565.4

Same assay, conditions: in CCCCO

Compound | emission maximum [nm]
CC1=C(C(C)(C)C)C(C)=[N+]2C1=C(C)c1c(C)c(C(C)(C)C)c(C)n1[B-]2(F)F | 566.6

Same assay, conditions: in CCCCOC(C)=O

Compound | emission maximum [nm]
CC1=C(C(C)(C)C)C(C)=[N+]2C1=C(C)c1c(C)c(C(C)(C)C)c(C)n1[B-]2(F)F | 564.6

Same assay, conditions: in CCCO

Compound | emission maximum [nm]
O=Cc1cc(O)c(C=O)cc1O | 491
CC1=C(C(C)(C)C)C(C)=[N+]2C1=C(C)c1c(C)c(C(C)(C)C)c(C)n1[B-]2(F)F | 564.6

Same assay, conditions: in CCO

Compound | emission maximum [nm]
CC1(C)CC(=O)c2cc(F)cc(F)c2N1 | 492
N#C/C(=C/Nc1ccc(C#N)cc1)c1nc(-c2ccccc2)cs1 | 434
CN(C)c1ccc(/C=C/c2cc[n+](CCCCCCCCCCCC[n+]3ccc(/C=C/c4ccc(N(C)C)cc4)cc3)cc2)cc1 | 593
c1ccc(-n2c3ccccc3c3ccccc32)cc1 | 344
COc1ccc2c(-c3nc(-c4ccccc4F)no3)cc(=O)oc2c1 | 464
O=Cc1cc(O)c(C=O)cc1O | 491
F[B-]1(F)OC(c2ccccc2)=Nc2sc(-c3ccccc3)n[n+]21 | 409
CC1=C(C(C)(C)C)C(C)=[N+]2C1=C(C)c1c(C)c(C(C)(C)C)c(C)n1[B-]2(F)F | 563.2
CCC1=C(C)C2=C(C)c3c(I)c(I)cn3[B-](F)(F)[N+]2=C1C | 534
CC(C)[Si]1(C(C)C)c2cc(C=C(C#N)C#N)ccc2-c2ccc(N(C)C)cc21 | 691

Same assay, conditions: in CCOC(C)=O

Compound | emission maximum [nm]
CCCSc1ccc2n1[B-](F)(F)[N+]1=CC=CC1=C2c1ccccc1 | 589
COC(=O)[C@H](Cc1ccc2oc3c(c2c1)=CC1=C(c2ccc(OC)cc2)c2cc4c5cc(C[C@H](NC(=O)OC(C)(C)C)C(=O)OC)ccc5oc4n2[B-](F)(F)[N+]=31)NC(=O)OC(C)(C)C | 597
F[B-]1(F)OC(c2ccccc2)=Nc2sc(-c3ccccc3)n[n+]21 | 411
CC1=C(C(C)(C)C)C(C)=[N+]2C1=C(C)c1c(C)c(C(C)(C)C)c(C)n1[B-]2(F)F | 562.4
CC(=O)Nc1ccc(S(=O)(=O)O)c(/N=N/c2c(O)c3ccccc3n(C)c2=O)c1 | 523
CCC1=C(C)C2=C(C)c3c(I)c(I)cn3[B-](F)(F)[N+]2=C1C | 533
